Results from article PMC9317902, “Multi-Targeting Approach in Glioblastoma Using Computer-Assisted Drug Discovery Tools to Overcome the Blood–Brain Barrier and Target EGFR/PI3Kp110β Signaling” (Cancers, 2022).

What was measured:
HBMEC monolayer = assay: Transwell in vitro BBB model: transport (UPLC-MS/MS) and barrier integrity; format: in vitro ADME, human
Protocol: To evaluate molecules’ BBB transport, a well-validated two-chamber BBB model, relying on the use of a microporous semipermeable membrane (Transwell insert) that separates the upper (luminal: “blood side”) and the lower (abluminal: “brain side”) chambers, was used as usual in our team. Briefly, HBMEC were seeded on polyester inserts (0.4 μm, Corning Costar Corp., New York, NY, USA) at a density of 8 × 10^4 cell/insert and treated after 8 days in culture. Inserts were coated with rat-tail collagen-I (BD Biosciences, Erembodegem, Aalst, Belgium) before seeding. Transport assays were conducted in Hank’s Balanced Salt Solution (HBSS, Gibco, Waltham, MA, USA) with calcium and magnesium, supplemented with 0.1% FBS.
Samples from upper and lower chambers were deproteinized using acetonitrile (ACN) (1:3) in ice-cold conditions, centrifuged at 15,300× g for 5 min at 4 °C and the respective supernatants were frozen until subsequent analysis.
The identification and quantification of molecules of interest were achieved by ultra-performance liquid chromatography–tandem mass spectrometry (UPLC-MS/MS) analysis using a triple quadrupole and Masslynx 4.1 software (Acquity TQ Waters). The separation of analytes was performed using a reversed-phase column Purospher STAR, RP-18 endcapped, 2 µm; Hibar HR 50-2.1 (Merck, Rahway, NJ, USA) at 35 °C, and a linear gradient (0.1% formic acid (A): ACN with 0.1% formic acid (B)) at a flow rate of 0.30 mL/min. The detection of analytes was based on electrospray ionization in the positive mode (ESI+) and acquisition in multiple reaction monitoring mode (MRM) at the following settings: ESI capillary voltage 3.0 kV, cone voltage 30 V, extractor voltage 1 V, RF lens voltage 0.1 V, desolvation gas flow 750 L/h at 350 °C, cone gas flow 50 L/h at 120 °C. Calibration curves were based on external standards using at least 8-points within the intended range, injected as duplicates. Analytes were quantified with a maximum deviation of 15% between the MRM1/MRM2 ratio. Each sample was injected in triplicate. Endothelial transport was calculated based on the ratio of lower compartment concentration and the sum of upper and lower compartments concentrations.
HBMEC monolayer integrity was ensured during BBB transport assays by TEER measurements and sodium-fluorescein paracellular permeability assessment, as previously described. TEER readings were performed using an EndOhm^TM chamber coupled to an EVOMX resistance meter (World Precision Instruments, Inc., Sarasota, FL, USA) and sodium fluorescein levels were measured using a Hitachi F-2000 fluorescence spectrophotometer.

U87MG-wtEGFR cells = assay: MTT cell viability, U87MG-wtEGFR; format: cell-based; conditions: U87MG-wtEGFR, 24 h, MTT
Protocol: To analyze molecules’ cytotoxicity, U87MG and U87MG-wtEGFR cells were seeded into 96-well plates at a density of 2.5 × 10^4 cells/mL, and after 48 h were incubated with 0.1, 1, 10, or 100 µM of each molecule diluted in (non-supplemented) cell medium for 24 h. […] Dose–response data were also obtained for treatment with triton X-100 (positive control) and DMSO (vehicle; negative control). The cytotoxicity of selected molecules from initial screening was tested in HBMEC at 100 µM for 24 h. HBMEC were seeded at a density of 8 × 10^4 cell/mL in 96-well plates and after 48 h were incubated with the molecules.
In screening assays, cell viability was evaluated using thiazolyl blue tetrazolium bromide (MTT). Briefly, a culture medium containing 0.5 mg/mL of MTT was added to each well for 90 min at 37 °C. The supernatant was removed and the formed formazan crystals in viable cells were solubilized with 0.04 N HCl in isopropanol solution.

HBMEC = HBMEC integrity and morphology (β-catenin, F-actin immunofluorescence); format: cell-based, human
Text: HBMEC in coverslips were stained for: the junctional protein β-catenin (1:100, Thermo Fisher Scientific, Waltham, MA, USA, #71-2700), the cytoskeleton protein F-actin (1:1000, Phalloidin dye, Abcam, Cambridge, UK, #ab17675), and the efflux transporter P-gp (1:50, Santa Cruz Biotechnology, Dallas, TX, USA, #sc-390883). HBMEC seeded on polyester inserts for transport assays were also stained for the junctional protein zonula occludens-1 (ZO-1, 1:200, Thermo Fisher Scientific, Waltham, MA, USA, #40-2200) and the cytoskeleton protein vimentin (1:100, Thermo Fisher Scientific, Waltham, MA, USA, #MA3745).
Incubations with primary antibodies occurred overnight at 4 °C. Incubation with the secondary antibodies Alexa Fluor 555 (1:500, Thermo Fisher Scientific, Waltham, MA, USA, #A21428) or Alexa Fluor 488 (1:500, Thermo Fisher Scientific, Waltham, MA, USA, #A11001) lasted for 1 h at room temperature. Nuclei were counterstained with Hoechst 33342 dye (1:1000, Thermo Fisher Scientific, Waltham, MA, USA, #33342) for 10 min. Before mounting with DPX (Merck Millipore, Burlington, MA, USA), cells were dehydrated with methanol. Negative controls were performed.
All acquired images were treated in ImageJ (NIH, Bethesda, MD, USA). Assessment of nuclear morphology following Hoechst staining was evaluated. For fluorescence intensity measures, the regions of interest were selected in Image J, and corresponding integrated densities were obtained. The representative 3D plots for BBB integrity were obtained by merged pixel intensity using the surface plot tool of Image J. For F-actin stress fibers analysis, the plot profile tool of Image J was used considering each defined cell-ferret diameter.
For analysis of β-catenin internalization and HBMEC morphological changes, Icy software was used. At least 5 cells per field were delineated and the conveyed values of membrane/interior pixels and roundness (area/perimeter^2) were exported and analyzed. Taking advantage of membrane staining (β-catenin), the BBB’s integrity was also analyzed by quantifying the total area of intercellular gaps in the HBMEC monolayer.

## CCCCN1CCCc2cc(CN(CCN3CCOCC3)C(=S)Nc3cc(F)cc(F)c3)ccc21 [Mol 19]
HBMEC monolayer; U87MG EC50
  HBMEC permeability to sodium fluorescein (Pe): no statistical differences between treated cells and control
HBMEC monolayer; U87MG EC50, 30 min
  TEER of HBMEC monolayer: None of the molecules markedly changed the TEER
HBMEC monolayer; UPLC-MS/MS
  endothelial transport efficiency, 30 vs. 120 min: transported across the HBMEC monolayer in a time-dependent manner
HBMEC monolayer; UPLC-MS/MS, 30 and 120 min
  transport across the BBB endothelium: could be transported across the BBB endothelium
U87MG-wtEGFR cells; read-out: EC50
  EC50: 27.6 ± 5.91 µM
U87MG-wtEGFR cells; screening 0.1-100 µM
  cell death: ≥ 50%
HBMEC
  HBMEC shape (roundness): no significant changes in HBMEC shape
  β-catenin expression and location: absence of changes in β-catenin expression and location
